Assay results reported in US12303592B2, “Formulations for parenteral delivery of compounds and uses thereof” (Wyeth, LLC, priority 2006, dated 2025).

Legend:
[1] = Effect of 1 mM sodium tungstate on subcutaneous formulation (Table 16), HPLC Method A; type: physicochemical; as to Ring Contraction Degradant: key: BRL=below recordable limit
[2] = white crystalline powder from Mallinckrodt; cited from earlier work
[3] = Buffer compatibility: stability of MNTX in pH 7 phosphate or glycine solution (Tables 9, 10), HPLC Method A; type: physicochemical
Text: Evaluation of phosphate buffers solution stability. We have also assessed different buffers to determine compatibility and whether various conditions would convey further stability to methylnaltrexone solutions. Table 9 and Table 10 show results (HPLC Method A) of total degradant formation over time in methylnaltrexone solutions prepared in phosphate solution (Table 9), and glycine solution (Table 10). We found at pH 7, glycine provides better stability characteristics to samples than phosphate.

SMILES: C[N+]1(CC2CC2)CC[C@]23c4c5ccc(O)c4O[C@H]2C(=O)CC[C@@]3(O)[C@H]1C5 (stereo partly shown) [MNTX, methylnaltrexone bromide]
- 7-Dihydroxy MNTX ([1]; 40° C., 1 hour): BRL
- O-Methyl MNTX ([1]; 40° C., 1 hour): 0.12
- Ring Contraction Degradant ([1]; 40° C., 1 hour): BRL
- Total ([1]; 40° C., 1 hour): 0.12
- 7-Dihydroxy MNTX ([1]; 40° C., 2 hours): 0.02
- O-Methyl MNTX ([1]; 40° C., 2 hours): 0.12
- Ring Contraction Degradant ([1]; 40° C., 2 hours): BRL
- Total ([1]; 40° C., 2 hours): 0.14
- 7-Dihydroxy MNTX ([1]; 40° C., 3 hours): 0.02
- O-Methyl MNTX ([1]; 40° C., 3 hours): 0.12
- Ring Contraction Degradant ([1]; 40° C., 3 hours): BRL
- Total ([1]; 40° C., 3 hours): 0.14
- 7-Dihydroxy MNTX ([1]; 40° C., 4 hours): 0.02
- O-Methyl MNTX ([1]; 40° C., 4 hours): 0.12
- Ring Contraction Degradant ([1]; 40° C., 4 hours): BRL
- Total ([1]; 40° C., 4 hours): 0.14
- 7-Dihydroxy MNTX ([1]; 40° C., 5 hours): 0.03
- O-Methyl MNTX ([1]; 40° C., 5 hours): 0.12
- Ring Contraction Degradant ([1]; 40° C., 5 hours): BRL
- Total ([1]; 40° C., 5 hours): 0.15
- 7-Dihydroxy MNTX ([1]; 40° C., Initial): BRL
- O-Methyl MNTX ([1]; 40° C., Initial): 0.12
- Ring Contraction Degradant ([1]; 40° C., Initial): BRL
- Total ([1]; 40° C., Initial): 0.12
- 7-Dihydroxy MNTX ([1]; Room Temperature, 1 hour): BRL
- O-Methyl MNTX ([1]; Room Temperature, 1 hour): 0.12
- Ring Contraction Degradant ([1]; Room Temperature, 1 hour): BRL
- Total ([1]; Room Temperature, 1 hour): 0.12
- 7-Dihydroxy MNTX ([1]; Room Temperature, 2 hours): 0.02
- O-Methyl MNTX ([1]; Room Temperature, 2 hours): 0.12
- Ring Contraction Degradant ([1]; Room Temperature, 2 hours): BRL
- Total ([1]; Room Temperature, 2 hours): 0.14
- 7-Dihydroxy MNTX ([1]; Room Temperature, 3 hours): 0.02
- O-Methyl MNTX ([1]; Room Temperature, 3 hours): 0.12
- Ring Contraction Degradant ([1]; Room Temperature, 3 hours): BRL
- Total ([1]; Room Temperature, 3 hours): 0.14
- 7-Dihydroxy MNTX ([1]; Room Temperature, 4 hours): 0.02
- O-Methyl MNTX ([1]; Room Temperature, 4 hours): 0.12
- Ring Contraction Degradant ([1]; Room Temperature, 4 hours): BRL
- Total ([1]; Room Temperature, 4 hours): 0.14
- 7-Dihydroxy MNTX ([1]; Room Temperature, 5 hours): 0.02
- O-Methyl MNTX ([1]; Room Temperature, 5 hours): 0.12
- Ring Contraction Degradant ([1]; Room Temperature, 5 hours): BRL
- Total ([1]; Room Temperature, 5 hours): 0.14
- 7-Dihydroxy MNTX ([1]; Room Temperature, Initial): BRL
- O-Methyl MNTX ([1]; Room Temperature, Initial): 0.12
- Ring Contraction Degradant ([1]; Room Temperature, Initial): BRL
- Total ([1]; Room Temperature, Initial): 0.12
- solubility in water [2]: freely soluble in water
- Appearance and Description ([3]; pH 7, 0.02M Glycine Solution, 40° C., r24 0 time, r26 1 day, r28 2 days, r30 6 days, r32 9 days, r34 14 days, r36 21 days): Clear, colorless
- Appearance and Description ([3]; pH 7, 0.02M Glycine Solution, Room Temperature, r8 0 time, r11 1 day, r13 2 days, r15 6 days, r18 9 days, r20 14 days, r22 21 days): Clear, colorless
- Appearance and Description ([3]; pH 7, 0.02M Phosphate Solution, 40° C., r22 0 time, r24 1 day, r26 2 days, r28 6 days, r30 9 days, r32 14 days, r35 21 days, elapsed 0 time): Clear, colorless
- Appearance and Description ([3]; pH 7, 0.02M Phosphate Solution, 60° C., r38 0 time, r40 1 day, r42 2 days, r44 6 days, r46 9 days, r48 14 days, r50 21 days, elapsed 0 time): Clear, colorless
- Appearance and Description ([3]; pH 7, 0.02M Phosphate Solution, 60° C., r38 0 time, r40 1 day, r42 2 days, r44 6 days, r46 9 days, r48 14 days, r50 21 days, elapsed 9 days): Clear, yellow
- Appearance and Description ([3]; pH 7, 0.02M Phosphate Solution, Room Temperature, r8 0 time, r10 1 day, r12 2 days, r14 6 days, r16 9 days, r18 14 days, r20 21 days): Clear, colorless
